Assay results as given in patent US20220062205A1, “TREATMENT OF GASTROINTESTINAL DISORDERS AND SYMPTOMS THEREOF” (Indiana University Research and Technology Corporation, priority 2018, published 2022).

Experiments:
Assay type in all cases: in vivo, mouse
[1] = system: Winnie mice; assay: Gastrointestinal transit of barium sulfate by X-ray imaging; conditions: 25 mg/kg IP twice a day
Procedure: The small molecular APE1/Ref-1 antagonist; APX3330, was administered via IP injections in Winnie mice at a dose of 25 mg/kg (30 G needle, max volume 200 μl) dissolved in Cremphore (2%) (Sigma-Aldrich): Ethanol (2%) in sterile water (96%). Mice received alternating IP injections twice a day with 12-hour intervals, over the course of two weeks during predominate intestinal inflammation. Winnie-sham treated mice received vehicle injections excluding APX3330 drugs. All mice were monitored, weighed and faecal pellets were collected over the course of treatment. GI transit was acquired via a non-invasive radiological method. Briefly, control C57BL/6, Winnie-sham treated and Winnie-APX3330 treated mice received an administration of barium sulfate (2.5 mg/mL; max volume of 200 μl; X-OPAQUE-HD) via oral gavage. Sequential x-rays were attained by HiRay Plus Porta610HF x-ray apparatus (JOC Corp, Kanagawa, Japan; 50 kV, 0.3 mAs, exposure time 60 ms) immediately post Barium sulfate administration (0 min), every 5 minutes for the first hour, 10 minutes for the second hour and then every 20 minutes through to 250 minutes. Fujifilm FCR Capsule XL11 and analysed on eFilm 4.2.0 software developed images. Parameters of GI transit were measured by time (mins) to determine contrast passing through whole GI tract (whole transit time), stomach to caecum (oro-cecal transit time; OCTT), leaving caecum to anus (colonic transit time; CTT) and caecum retention time.

[2] = system: Winnie mice; assay: Intestinal inflammation: faecal lipocalin (Lcn)-2 ELISA; conditions: day 14; mean±SEM, n=5
Procedure: The small molecular APE1/Ref-1 antagonist; APX3330, was administered via IP injections in Winnie mice at a dose of 25 mg/kg (30 G needle, max volume 200 μl) dissolved in Cremphore (2%) (Sigma-Aldrich): Ethanol (2%) in sterile water (96%). Mice received alternating IP injections twice a day with 12-hour intervals, over the course of two weeks during predominate intestinal inflammation. Winnie-sham treated mice received vehicle injections excluding APX3330 drugs. All mice were monitored, weighed and faecal pellets were collected over the course of treatment. Faecal lipocalin (Lcn)-2 ELISA kit (Abcam) were used to detect efficacy of APX3330 on levels of colonic inflammation. Faecal samples collected on day 14 of treatments from control C57BL/6, Winnie-Sham treated and Winnie-APX3330 treated mice were reconstituted in PBS-0.1 TWEEN 20 (100 mg/mL) to form a homogenous faecal suspension. Homogenous suspension was centrifuged for 10 minutes at 12000 RPM at 4° C. Lcn-2 were determined in the clear supernatants. All samples were repeated in duplicates for statistical value. […] Microplate reader capable of measuring absorbance at 450 nm, with the correction wavelength set at 540 nm was used to detect Lcn-2 protein (pg/mL) in faecal pellet supernatant.

[3] = system: Winnie mice; assay: Ex vivo whole organ bath colonic motility of colons from treated mice; conditions: excised whole colons of treated Winnie mice; mean±SEM, n=5
Procedure: The small molecular APE1/Ref-1 antagonist; APX3330, was administered via IP injections in Winnie mice at a dose of 25 mg/kg (30 G needle, max volume 200 μl) dissolved in Cremphore (2%) (Sigma-Aldrich): Ethanol (2%) in sterile water (96%). Mice received alternating IP injections twice a day with 12-hour intervals, over the course of two weeks during predominate intestinal inflammation. Winnie-sham treated mice received vehicle injections excluding APX3330 drugs. All mice were monitored, weighed and faecal pellets were collected over the course of treatment. Colonic motility experiments were completed ex vivo. Whole colons were removed from control C57BL/6, Winnie-sham treated and Winnie-APX3330 treated mice. Colons were positioned horizontally cannulated at the oral and anal end in an organ bath superfused with carbogenated (composition in mM: NaCl 118, KCl 4.6, CaCl2 3.5, MgSO4 1.2, NAH2PO4 1, NaHCO3 25 and d-Glucose; carbongenated with 95% O2 and 5% CO2) ×1 Krebs solution whilst maintained at a temperature of 37° C. The oral cannula was connected to a reservoir with 1× Krebs solution that was adjusted to maintain intraluminal pressure (0 to +2 cm H2O). The anal end was coupled to an out-flow tube with a maximum 2 cm H2O backpressure. A recording was made by a video camera being positioned above the organ bath, this recorded the colonic contractile activity. Tissue were left to equilibrate for 30 minutes prior to 2× 20-minute recordings at increasing intraluminal pressure. Videos were transposed into spatiotemporal maps with Scribble v2.0 software and were analysed by using MATLAB, v2017a software to assess parameters of colonic motility.

[4] = system: Winnie mice; assay: RNA sequencing of pooled distal colon; conditions: n=6, relative to control C57BL/6 mice
Procedure: The small molecular APE1/Ref-1 antagonist; APX3330, was administered via IP injections in Winnie mice at a dose of 25 mg/kg (30 G needle, max volume 200 μl) dissolved in Cremphore (2%) (Sigma-Aldrich): Ethanol (2%) in sterile water (96%). Mice received alternating IP injections twice a day with 12-hour intervals, over the course of two weeks during predominate intestinal inflammation. Winnie-sham treated mice received vehicle injections excluding APX3330 drugs. All mice were monitored, weighed and faecal pellets were collected over the course of treatment. Control C57BL/6, Winnie-sham treated and Winnie-APX3330 fresh colon tissues were collected and snap frozen into liquid nitrogen. Samples were then sent to the Australian Genome Research Facility (AGRF) where next generation sequencing (NGS) was completed. NGS will be carried out by removing 2-3 μg of RNA per sample (≥100 ng/μl). The integrity of the RNA will be assessed by a Bioanalyzer as samples are to have a RNA integrity number (RIN) value of ≥8.0. The RNA samples went through a DNase treatment ready for library preparation. […] Samples underwent quality and adapter trimming, alignment, quantification and normalization. […] Final data obtained from AGRF were analysed and interpreted to determine APE1/Ref-1 associated pathways.

**Q.** How did the “retention time in the cecum” value ([1]; Winnie mice, mean±SEM) turn out when `CCCCCCCCCC(=CC1=C(C)C(=O)C(OC)=C(OC)C1=O)C(=O)O` [APX3330] was run?
**A.** 86.4 ± 17.8 min

**Q.** And the total transit time ([1]; Winnie mice, mean±SEM)?
**A.** 173.3 ± 24.6 min

**Q.** What about the “oro-caecal transit time (OCTT)” value ([1]; between experimental groups, Winnie mice) of the same molecule?
**A.** No changes

**Q.** And the “colonic transit time (CTT)” value ([1]; compared to Winnie-sham treated mice)?
**A.** improved

**Q.** And the Lcn-2 faecal level [2]?
**A.** 36 ± 2.0 pg/mL

**Q.** And the “proportional length of colonic migrating motor complexes (CMMCs)” value [3]?
**A.** 73±1.0%

**Q.** And the “proportional short contraction length (<50% of colon length)” value [3]?
**A.** 33.9±3.8%

**Q.** And the “total length of colonic contractions relative to total colon length” value [3]?
**A.** 62.3±2.4%

**Q.** What about the “down regulation (fold change) of RNA expression of S100a8, Khdc1a, Lrg1, Retnlb, Nos2, Ido1 and REG3B” value [4] of the same molecule?
**A.** > 2
